Experiments:
human cathepsin K = human cathepsin K (UniProt P43236); experiment: Cathepsin K Assay (hrbCat K); format: biochemical; conditions: Z-Leu-Arg-AMC substrate, pH 5.5, 15 min preincubation; read-out: hrbCat K (IP (nM))
How it was run: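 Human cathepsin K (0.4 nM) was preincubated 15 min at room temperature with compound in 50 mM MES pH 5.5, 2.5 mM EDTA, 2.5 mM DTT and 10% DMSO. Inhibition was fitted to a dose-response model.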

human cathepsin F = target: T1, human cathepsin F (Homo sapiens, UniProt Q9UBX1); experiment: Cathepsin F assay (hCat F); format: biochemical; conditions: Z-Phe-Arg-AMC substrate, pH 5.5, 15 min preincubation; read-out: hCat F (IP (nM))
T1 sequence (Q9UBX1 271-484): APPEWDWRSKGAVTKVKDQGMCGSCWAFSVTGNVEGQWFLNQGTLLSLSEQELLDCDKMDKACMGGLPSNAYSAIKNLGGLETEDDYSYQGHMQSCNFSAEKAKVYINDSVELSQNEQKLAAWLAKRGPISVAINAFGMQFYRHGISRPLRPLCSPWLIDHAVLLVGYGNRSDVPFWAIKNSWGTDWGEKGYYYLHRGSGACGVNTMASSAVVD
How it was run: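 AMC release from Z-Phe-Arg-AMC, added at 8 μM, was monitored fluorometrically (360/460 nm) for 20 min after 10 nM enzyme and compound had been preincubated 15 min at room temperature. Buffer: MES 50 mM pH 5.5, EDTA and DTT 2.5 mM each, 10% DMSO. Compound DMSO dilutions spanned 500–0.025 μM (3-fold). Dose-response fitting gave % inhibition.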

| IC50 (human cathepsin K) [nM] | IC50 (human cathepsin F) [nM] | Structure (SMILES) |
| --- | --- | --- |
| 0.5 | 49 | N#CC1(NC(=O)[C@@H]2CC(F)(F)CC[C@H]2c2nc(-c3cccnc3)sc2-c2ccc(N3CCS(=O)(=O)CC3)cc2)CC1 [Example 49, (1R,2R)-N-(1-cyanocyclopropyl)-2-(5-(4-(1,1-dioxidothiomorpho-lino)phenyl)-2-(pyridin-3-yl)thiazol-4-yl)-5,5-difluorocyclohexane-carboxamide] |
| 1.9 | 879 | Cn1cccc(-c2nc([C@@H]3CCCC[C@H]3C(=O)NC3(C#N)CC3)c(-c3ccc(N4CCS(=O)(=O)CC4)cc3)s2)c1=O [Example 50, (1R,2R)-N-(1-cyanocyclopropyl)-2-(5-(4-(1,1-dioxidothiomorpho-lino)phenyl)-2-(1-methyl-2-oxo-1,2-dihydropyridin-3-yl)thiazol-4-yl)cyclohexane-carboxamide] |
| 1.8 | 1110 | COc1ccc(-c2nc([C@@H]3CCCC[C@H]3C(=O)NC3(C#N)CC3)c(-c3ccc(N4CCS(=O)(=O)CC4)cc3)s2)cc1 [Example 51, (1R,2R)-N-(1-cyanocyclopropyl)-2-(5-(4-(1,1-dioxidothiomorpho-lino)phenyl)-2-(4-methoxyphenyl)thi-azol-4-yl)cyclohexane-carboxamide] |
| 3.8 | 2770 | Cn1cc(-c2nc([C@@H]3CCCC[C@H]3C(=O)NC3(C#N)CC3)c(-c3ccc(N4CCS(=O)(=O)CC4)cc3)s2)ccc1=O [Example 53, (1R,2R)-N-(1-cyanocyclopropyl)-2-(5-(4-(1,1-dioxidothiomorpho-lino)phenyl)-2-(1-methyl-6-oxo-1,6-dihydropyridin-3-yl)thiazol-4-yl)cyclohexane-carboxamide] |
| 2.1 | 1000 | COc1ccccc1-c1nc([C@@H]2CCCC[C@H]2C(=O)NC2(C#N)CC2)c(-c2ccc(N3CCS(=O)(=O)CC3)cc2)s1 [Example 54, (1R,2R)-N-(1-cyanocyclopropyl)-2-(5-(4-(1,1-dioxidothiomorpho-lino)phenyl)-2-(2-methoxyphenyl)thi-azol-4-yl)cyclohexane-carboxamide] |
| 2.5 | 1120 | N#CC1(NC(=O)[C@@H]2CCCC[C@H]2c2nc(-c3ccccc3F)sc2-c2ccc(N3CCS(=O)(=O)CC3)cc2)CC1 [Example 55, (1R,2R)-N-(1-cyanocyclopropyl)-2-(5-(4-(1,1-dioxidothiomorpho-lino)phenyl)-2-(2-fluorophenyl)thiazol-4-yl)cyclohexane-carboxamide] |
| 1.8 | 821 | COc1cccc(-c2nc([C@@H]3CCCC[C@H]3C(=O)NC3(C#N)CC3)c(-c3ccc(N4CCS(=O)(=O)CC4)cc3)s2)c1 [Example 56, (1R,2R)-N-(1-cyanocyclopropyl)-2-(5-(4-(1,1-dioxidothiomorpho-lino)phenyl)-2-(3-methoxyphenyl)thi-azol-4-yl)cyclohexane-carboxamide] |
| 1.5 | 650 | N#CC1(NC(=O)[C@@H]2CCCC[C@H]2c2nc(-c3cc(F)cc(F)c3)sc2-c2ccc(N3CCS(=O)(=O)CC3)cc2)CC1 [Example 57, (1R,2R)-N-(1-cyanocyclopropyl)-2-(2-(3,5-difluorophenyl)-5-(4-(1,1-dioxidothiomorpho-lino)phenyl)thiazol-4-yl)cyclohexane-carboxamide] |
| 1.7 | 815 | N#CC1(NC(=O)[C@@H]2CCCC[C@H]2c2nc(-c3ccc(F)c(F)c3)sc2-c2ccc(N3CCS(=O)(=O)CC3)cc2)CC1 [Example 58, (1R,2R)-N-(1-cyanocyclopropyl)-2-(2-(3,4-difluorophenyl)-5-(4-(1,1-dioxidothiomorpho-lino)phenyl)thiazol-4-yl)cyclohexane-carboxamide] |
| 45.1 | ≥ 10000 | COc1cnc(-c2nc([C@@H]3CCCC[C@H]3C(=O)NC3(C#N)CC3)c(-c3ccc(N4CCS(=O)(=O)CC4)cc3)s2)c(OC)c1 [Example 59, (1R,2R)-N-(1-cyanocyclopropyl)-2-(2-(3,5-dimethoxypyridin-2-yl)-5-(4-(1,1-dioxidothiomorpho-lino)phenyl)thiazol-4-yl)cyclohexane-carboxamide] |
| 5.1 | 7910 | COc1cnc(-c2nc([C@@H]3CCCC[C@H]3C(=O)NC3(C#N)CC3)c(-c3ccc(N4CCS(=O)(=O)CC4)cc3)s2)c(F)c1 [Example 60, (1R,2R)-N-(1-cyanocyclopropyl)-2-(5-(4-(1,1-dioxidothiomorpho-lino)phenyl)-2-(3-fluoro-5-methoxypyridin-2-yl)thiazol-4-yl)cyclohexane-carboxamide] |
| 5.9 | 7650 | N#Cc1cc(F)ccc1-c1nc([C@@H]2CCCC[C@H]2C(=O)NC2(C#N)CC2)c(-c2ccc(N3CCS(=O)(=O)CC3)cc2)s1 [Example 61, (1R,2R)-2-(2-(2-cyano-4-fluorophenyl)-5-(4-(1,1-dioxidothiomorpho-lino)phenyl)thiazol-4-yl)-N-(1-cyanocyclopropyl) cyclohexanecarbox-amide] |
| 2.1 | 1000 | N#CC1(NC(=O)[C@@H]2CCCC[C@H]2c2nc(-c3cccc(F)c3F)sc2-c2ccc(N3CCS(=O)(=O)CC3)cc2)CC1 [Example 62, (1R,2R)-N-(1-cyanocyclopropyl)-2-(2-(2,3-difluorophenyl)-5-(4-(1,1-dioxidothiomorpho-lino)phenyl)thiazol-4-yl)cyclohexane-carboxamide] |
| 1.4 | 1330 | N#CC1(NC(=O)[C@@H]2CCCC[C@H]2c2nc(-c3cccc(F)c3)sc2-c2ccc(N3CCS(=O)(=O)CC3)cc2)CC1 [Example 64, (1R,2R)-N-(1-cyanocyclopropyl)-2-(5-(4-(1,1-dioxidothiomorpho-lino)phenyl)-2-(3-fluorophenyl)thiazol-4-yl)cyclohexane-carboxamide] |
| 7 | 1000 | N#CC1(NC(=O)[C@@H]2CCCC[C@H]2c2nc(-c3ncc(F)cc3F)sc2-c2ccc(N3CCS(=O)(=O)CC3)cc2)CC1 [Example 65, (1R,2R)-N-(1-cyanocyclopropyl)-2-(2-(3,5-difluoropyridin-2-yl)-5-(4-(1,1-dioxidothiomorpho-lino)phenyl)thiazol-4-yl)cyclohexane-carboxamide] |
| 2 | 1410 | N#Cc1cccc(-c2nc([C@@H]3CCCC[C@H]3C(=O)NC3(C#N)CC3)c(-c3ccc(N4CCS(=O)(=O)CC4)cc3)s2)c1 [Example 66, (1R,2R)-N-(1-cyanocyclopropyl)-2-(2-(3-cyanophenyl)-5-(4-(1,1-dioxidothiomorpho-lino)phenyl)thiazol-4-yl)cyclohexane-carboxamide] |
| 5.8 | ≥ 10000 | Cc1ccc(-c2nc([C@@H]3CCCC[C@H]3C(=O)NC3(C#N)CC3)c(-c3ccc(N4CCS(=O)(=O)CC4)cc3)s2)c(C#N)c1 [Example 67, (1R,2R)-2-(2-(2-cyano-4-methylphenyl)-5-(4-(1,1-dioxidothiomorpho-lino)phenyl)thiazol-4-yl)-N-(1-cyanocyclopropyl) cyclohexanecarbox-amide] |
| 1.7 | 2310 | N#CC1(NC(=O)[C@@H]2C[C@@H](F)CC[C@H]2c2nc(-c3cncc(Cl)c3)sc2-c2ccc(N3CCS(=O)(=O)CC3)cc2)CC1 [Example 68, (1R,2R,5S)-2-(2-(5-chloropyridin-3-yl)-5-(4-(1,1-dioxidothiomorpho-lino)phenyl)thiazol-4-yl)-N-(1-cyanocyclopropyl)-5-fluorocyclohexane-carboxamide] |
| 1.2 | 2600 | N#CC1(NC(=O)[C@@H]2C[C@@H](F)CC[C@H]2c2nc(-c3ccc(F)cn3)sc2-c2ccc(N3CCS(=O)(=O)CC3)cc2)CC1 [Example 69, (1R,2R,5S)-N-(1-cyanocyclopropyl)-2-(5-(4-(1,1-dioxidothiomorpho-lino)phenyl)-2-(5-fluoropyridin-2-yl)thiazol-4-yl)-5-fluorocyclohexane-carboxamide] |
| 27.1 | ≥ 10000 | N#CC1(NC(=O)[C@@H]2CCCC[C@H]2c2nc(-c3ncccn3)sc2-c2ccc(N3CCS(=O)(=O)CC3)cc2)CC1 [Example 70, (1R,2R)-N-(1-cyanocyclopropyl)-2-(5-(4-(1,1-dioxidothiomorpho-lino)phenyl)-2-(pyrimidin-2-yl)thiazol-4-yl)cyclohexane-carboxamide] |
| 2.3 | 2320 | N#CC1(NC(=O)[C@@H]2CCCC[C@H]2c2nc(-c3cnc(N)nc3)sc2-c2ccc(N3CCS(=O)(=O)CC3)cc2)CC1 [Example 71, (1R,2R)-2-(2-(2-aminopyrimidin-5-yl)-5-(4-(1,1-dioxidothiomorpho-lino)phenyl)thiazol-4-yl)-N-(1-cyanocyclopropyl) cyclohexanecarbox-amide] |
| 2.3 | 2150 | N#CC1(NC(=O)[C@@H]2CCCC[C@H]2c2nc(-c3cccnc3)sc2-c2ccc(N3CCS(=O)(=O)C4(CC4)C3)cc2)CC1 [Example 72, (1R,2R)-N-(1-cyanocyclopropyl)-2-(5-(4-(4,4-dioxido-4-thia-7-azaspiro[2.5]octan-7-yl)phenyl)-2-(pyridin-3-yl)thiazol-4-yl)cyclohexane-carboxamide] |

From patent US9573913B2, “Cathepsin cysteine protease inhibitors” (Merck Sharp & Dohme Corp., priority 2013, dated 2017)
